Source: the SangsterLogP compilation

Assay: method code SF-AS, from PMID: 6686445
Conditions: pH 7.4

Compound	logD
CSc1ccccc1C1=NCC(=O)Nc2ccc(Cl)cc21	2.99
O=C1CN=C(c2ccccc2[N+](=O)[O-])c2cc([N+](=O)[O-])ccc2N1	1.61
Cc1ccccc1C1=NCC(=O)N(C)c2ccc(Cl)cc21	3.03
C[C@@H]1N=C(c2ccccc2Cl)c2cc([N+](=O)[O-])ccc2NC1=O	2.72
CN1C(=O)CN=C(c2ccc(Cl)cc2)c2cc(F)ccc21	3.1
N#Cc1ccc2c(c1)C(c1ccccc1)=NCC(=O)N2	1.82
O=C1CN=C(c2c(F)cccc2F)c2cc(Cl)ccc2N1	2.68
CSCN1C(=O)CN=C(c2ccccc2)c2cc(N)ccc21	1.92
O=C1CN=C(c2ccccc2F)c2cc(Cl)ccc2N1	2.7
CC1N=C(c2ccccc2Cl)c2cc(Cl)ccc2N(C)C1=O (stereo not given)	3.4
O=C1CN=C(c2ccccc2)c2cc(F)ccc2N1	2.32
CN1C(=O)CN=C(c2ccccc2)c2cc(N)ccc21	1.46
O=C1CN=C(c2ccc(F)cc2)c2cc(Cl)ccc2N1	2.9
CC(=O)c1ccc2c(c1)C(c1ccccc1F)=NCC(=O)N2	1.75
COc1ccc2c(c1)C(c1ccccc1)=NCC(=O)N2	2.24
O=C1CN=C(c2c(F)cccc2F)c2ccc(Cl)cc2N1	2.88
CCc1ccc2c(c1)C(c1ccccc1F)=NCC(=O)N2	2.92
CSc1ccc2c(c1)C(c1ccccc1)=NCC(=O)N2C	2.95
CN1C(=O)CN=C(c2ccccc2F)c2cc(N)ccc21	1.3
CCN1C(=O)CN=C(c2ccccc2)c2cc(N)ccc21	1.81
O=C1CN=C(c2ccccc2F)c2cc(Cl)ccc2N1CC(O)CO (stereo not given)	1.51
CN1C(=O)CN=C(c2ccccc2F)c2cc(Cl)ccc21	2.75
O=C1CN=C(c2ccc(C(F)(F)F)cc2)c2ccccc2N1	3.34
COc1ccc(C2=NCC(=O)N(C)c3ccc(Cl)cc32)cc1	3.15
O=C1CN=C(c2ccccc2Cl)c2cc(Cl)ccc2N1	3.15

Compound	logD
COCN1C(=O)CN=C(c2ccccc2F)c2cc(N)ccc21	1.31
O=C1CN=C(c2ccccc2F)c2cc([N+](=O)[O-])ccc2N1	2.15
O=C1CN=C(c2ccccc2C(F)(F)F)c2ccccc2N1	2.47
O=C1CN=C(c2ccccc2)c2cc([N+](=O)[O-])ccc2N1CC(O)CO (stereo not given)	0.96
COCN1C(=O)CN=C(c2ccccc2)c2cc(N)ccc21	1.32
O=C1CN=C(c2cccc(C(F)(F)F)c2)c2ccccc2N1	3.19
COCN1C(=O)C(O)N=C(c2ccccc2)c2cc(N)ccc21 (stereo not given)	0.75
CN1C(=O)CN=C(c2ccccc2F)c2cc(I)ccc21	3.14
COc1cccc(C2=NCC(=O)Nc3ccc(Cl)cc32)c1	3.14
CCN1C(=O)CN=C(c2ccccc2)c2cc(Cl)ccc21	3.21
O=C1CN=C(c2ccccc2)c2cc(C(F)(F)F)ccc2N1	3.1
COCN1C(=O)CN=C(c2ccccc2Cl)c2cc(Cl)ccc21	3.23
Cc1ccccc1C1=NCC(=O)Nc2ccc(Cl)cc21	3.12
O=C1CN=C(c2ccccc2F)c2cc(Cl)c(Cl)cc2N1	3.63
Cc1ccc2c(c1)C(c1ccccc1)=NCC(=O)N2	2.62
O=C1CN=C(c2ccccc2C(F)(F)F)c2cc([N+](=O)[O-])ccc2N1	2.51
CN1C(=O)CN=C(c2ccccc2Cl)c2cc(Cl)ccc21	3.12
O=C1CN=C(c2ccccc2)c2ccccc2N1	2.18
COCN1C(=O)CN=C(c2ccccc2)c2cc([N+](=O)[O-])ccc21	2.05
CSCN1C(=O)CN=C(c2ccccc2)c2cc(Cl)ccc21	3.32
CN1C(=O)CN=C(c2c(Cl)cccc2Cl)c2cc(Cl)ccc21	3.04
O=C1CN=C(c2ccccc2F)c2ccccc2N1	2.38
O=C1CN=C(c2ccccc2Br)c2cc(Cl)ccc2N1	3.17
COCN1C(=O)CN=C(c2ccccc2)c2cc(Cl)ccc21	2.86
COc1ccccc1C1=NCC(=O)Nc2ccc(Cl)cc21	2.63
